Experimental findings from patent US20190307843A1, “SINGLE DOSE METHODS FOR PREVENTING AND TREATING FUNGAL INFECTIONS” (Cidara Therapeutics, Inc., priority 2016, published 2019) are described below.

For one assay, the system named is C. parapsilosis. Kind of assay: In vitro susceptibility testing (CLSI M27-A3), C. parapsilosis. The class given is cell-based, Candida parapsilosis. To be noted: Lodderomyces parapsilosis, 24 h. As for the experimental part:
(§1) Ten clinical Candida strains were used for the in vivo treatment studies, including four C. albicans, three C. glabrata, and three C. parapsilosis strains (Table 15). This group was selected to encompass phenotypic variability in susceptibility to triazoles and echinocandins and based on similar fitness in the animal model as defined by the amount of growth in control animals over 24 h. The organisms were maintained, grown, and quantified on Sabouraud's dextrose agar (SDA) plates.
(§2) In vitro susceptibility testing. All isolates were tested in accordance with the standards in CLSI document M27-A3. The MICs were determined visually after 24 h of incubation as the lowest concentration of drug that causes a significant diminution (50%) of growth compared to controls. MICs were determined on three separate occasions in duplicate.

Another assay relates to C. albicans. Put plainly: In vitro susceptibility testing (CLSI M27-A3), C. albicans. Type of assay: cell-based. To be noted: Candida albicans, 24 h. On the procedure: as §1, §2
The test system of the next assay is C. glabrata. Put plainly: In vitro susceptibility testing (CLSI M27-A3), C. glabrata. To be noted: Nakaseomyces glabratus, 24 h. The class given is cell-based, Candida glabrata. On the procedure:
as §1, §2

For assay [1], the system named is Aspergillus fumigatus (ATCC 13073). Kind of assay: Neutropenic mouse aspergillosis model, survival. Type of assay: in vivo. To be noted: AmB 2 mg/kg IP one dose; 10 days.
In the next assay the test system is C. auris. Put plainly: Murine model of disseminated candidiasis, C. auris infection, kidney CFU and survival. Type of assay: in vivo, Candida auris. To be noted: amphotericin B 0.3 mg/kg IP, 2 doses; Day 14.
Assay [2] concerns Aspergillus fumigatus (ATCC 13073). Put plainly: Prophylaxis, neutropenic ICR mouse disseminated aspergillosis model, survival. To be noted: amphotericin B at 3 mg/kg IP administered one hour after infection.
For assay [3], the system named is A. fumigatus AF293. Put plainly: Pulmonary aspergillosis, prophylaxis, neutropenic ICR mice (Examples 17, 18), survival. Type of assay: in vivo, Aspergillus fumigatus. As for the experimental part:
Intranasal infection with A. fumigatus AF293 (10^5 CFU/mouse) on Day 0. Prophylaxis CD101 as a single dose (IP; 5, 10, 20 mg/kg) or posaconazole (PO; 2 and 10 mg/kg) 1 day prior to infection. Survival monitored for 10 days.
Intranasal challenge with A. fumigatus AF293 (10^5 CFU/mouse) was initiated on Day 0 and prophylaxis with CD101 as a single dose (IP; 5, 10, 20 mg/kg) or posaconazole (PO; 2 and 10 mg/kg) was started 1 day prior to infection. Survival was monitored for 10 days.

The subject of assay [4] is A. fumigatus AF293. Put plainly: Murine model of pulmonary aspergillosis (Example 19), survival. To be noted: for Mean Survival / Median Survival: Day 1 pre-infection.
Assay [5] concerns A. fumigatus AF293. Put plainly: Murine model of pulmonary aspergillosis (Example 19), terminal lung burden. Type of assay: in vivo, Aspergillus fumigatus. As for the experimental part:
A secondary endpoint for the study was terminal lung tissue burden. Immediately following confirmation of death, carcasses were frozen at −20° C. prior to tissue dissection and processing. The frozen carcasses were thawed at room temperature, the lungs removed and placed into pre-weighed bead-beating tubes containing 2 mL of PBS and subjected to mechanical disruption. Organ homogenates were diluted further in PBS and quantitatively cultured for A. fumigatus onto SABC and incubated at 30° C. for 24-48 hours.
2. Lung tissue burden data were analysed using the non-parametric Kruskal-Wallis test and if this was statistically significant all pairwise comparisons were analyzed (Conover-Inman).

Setting [6] is: Vehicle vs. Posaconazole 10 mg/kg.
Setting [7] is: Posaconazole 10 mg/kg PO Day −1.

Converted amounts (≈) assume the structure as drawn. “And” between values parts separate entries of the source, which are not always exact repeats. Equal entries are not always repeated. Starred links: 1 amine or outer side, 2 acyl side, 3 side chain; linkers in the order of their positions; H or OH if unused. Positions of bridges follow the written chain, without caps; N, C: chain ends. Non-standard residues stand in square brackets, D forms with d. Residues, ends and D or L forms follow the SMILES beside them. *: point of attachment. pTerphenylCO(4''-OnC5H11) = CCCCCOc1ccc(-c2ccc(-c3ccc(C(=O)*)cc3)cc2)cc1; Orn(4R-OH,5R-OH) = O=C([C@H](C[C@@H](O)[C@@H](O)N[*:3])N[*:1])[*:2]; hTyr(3S-OH,4S-OH) = N[C@H](C(=O)O)[C@H](O)[C@@H](O)c1ccc(O)cc1; Pro(3S-OH,4S-Me) = C[C@H]1CN[C@H](C(=O)O)[C@H]1O; Hyp = O=C(O)[C@@H]1C[C@@H](O)CN1 Where only a bound is given, the exact number is not on record here.

What is called MIC is the smallest concentration in the dilution series that meets the test's criterion for growth inhibition. Consider `CCCCCOc1ccc(-c2ccc(-c3ccc(C(=O)N[C@H]4C[C@@H](O)[C@@H](O)NC(=O)[C@@H]5[C@@H](O)[C@@H](C)CN5C(=O)[C@H]([C@@H](C)O)NC(=O)[C@H]([C@H](O)[C@@H](O)c5ccc(O)cc5)NC(=O)[C@@H]5C[C@@H](O)CN5C(=O)[C@H]([C@@H](C)O)NC4=O)cc3)cc2)cc1` [Anidulafungin, anidulafungin, reference compound] ({pTerphenylCO(4''-OnC5H11)}-[Orn(4R-OH,5R-OH)]T[Hyp][hTyr(3S-OH,4S-OH)]T[Pro(3S-OH,4S-Me)]; lactam 1-C), for which the MIC stood at 1 µg/mL (≈ 0.877 µM) against C. parapsilosis (C. parapsilosis 20423.072); 2 µg/mL (≈ 1.75 µM) with C. parapsilosis (C. parapsilosis 20477.048); 4 µg/mL (≈ 3.51 µM) against C. parapsilosis (C. parapsilosis 20519.069); 0.03 µg/mL (≈ 0.0263 µM) in the assay on C. albicans (C. albicans 98-17); 0.015 µg/mL (≈ 0.0132 µM) in the assay on C. albicans (C. albicans 98-210); 0.015 µg/mL (≈ 0.0132 µM) in the assay with C. albicans (C. albicans 580). The MIC in the assay with C. albicans (C. albicans K-1, 50% growth diminution) was determined as 0.015 µg/mL (≈ 0.0132 µM); in the assay on C. glabrata (C. glabrata 5592) it was 0.06 µg/mL (≈ 0.0526 µM); against C. glabrata (C. glabrata 10956), 1 µg/mL (≈ 0.877 µM); in the assay with C. glabrata (C. glabrata 35315), 0.25 µg/mL (≈ 0.219 µM).
For `C[C@@H]1[C@H](O)[C@@H](C)/C=C/C=C/C=C/C=C/C=C/C=C/C=C/[C@H](O[C@@H]2O[C@H](C)[C@@H](O)[C@H](N)[C@@H]2O)C[C@@H]2O[C@](O)(C[C@@H](O)C[C@@H](O)[C@H](O)CC[C@@H](O)C[C@@H](O)CC(=O)O[C@H]1C)C[C@H](O)[C@H]2C(=O)O` [AmB, amphotericin B, reference compound], the survival vs vehicle entry in [1] is reported as “significantly longer survival than vehicle”. In addition, the “percent survival at the end of the study” value in the assay with C. auris was found to be 30%. In [2], the 14-day survival entry is given as “significant increase in the 14-day survival”.
Consider `CC[C@@H]([C@H](C)O)n1ncn(-c2ccc(N3CCN(c4ccc(OC[C@@H]5CO[C@@](Cn6cncn6)(c6ccc(F)cc6F)C5)cc4)CC3)cc2)c1=O` [Posaconazole, posaconazole], for which the survival entry in the assay on A. fumigatus AF293 [3] (posaconazole 2 mg/kg PO 1 day prior to infection) is listed as “no survivors”. Further, the “survival rate relative to control” value in the assay with A. fumigatus AF293 [3] (posaconazole 10 mg/kg PO 1 day prior to infection) is “statistically-significant increase in survival rate relative to control”. Besides, in the assay on A. fumigatus AF293 [4] (Posaconazole 2 mg/kg PO once), the “survival time post infection, range” value was in the range of 69 to 114 h; the “Mean Survival” value was determined as 77.5 h; the “Median Survival” value stood at 69.0 h. In addition, in the assay on A. fumigatus AF293 [4] (Posaconazole 10 mg/kg PO once), the “survival time post infection, range” value fell in the range of 69 to 240 h; the “Mean Survival” value is 212 h and 211.5 h; the “Median Survival” value was “cannot estimate”. For the same compound, the “mice surviving to the end of the study” value with A. fumigatus AF293 [4] (Posaconazole 10 mg/kg PO, 6/treatment group, 10 days) is 5. Moreover, in the assay with A. fumigatus AF293 [4] (Vehicle vs. Posaconazole 2 mg/kg), the “Wilcoxon (Peto-Prentice) test, survival” value is given as “P = 0.0391”. For the same compound, in the assay on A. fumigatus AF293 [4] (setting [6]), the “Log-Rank test, survival” value is “P = 0.0182” and the “Wilcoxon (Peto-Prentice) test, survival” value was “P = 0.0441”. Moreover, the “survival compared to the vehicle mice” value in the assay with A. fumigatus AF293 [4] (posaconazole 2 mg/kg once one day pre-infection) was “did not show any improvement in survival”. Further, the “mice surviving to the end of the study” value with A. fumigatus AF293 [4] (posaconazole 10 mg/kg once 1 day pre-infection) is above 80%. Further, in the assay on A. fumigatus AF293 [5] (Posaconazole 2 mg/kg PO Day −1), the “Group Geometric mean (lung burden)” value is recorded as 1.14 × 10^4 CFU/g, the “Log10 Group Geometric mean (lung burden)” value was 4.06 CFU/g and the “Log10 reduction from vehicle control” value was 0.11 CFU/g. Also, in the assay on A. fumigatus AF293 [5] (setting [7]), the “Group Geometric mean (lung burden)” value was 2.75 × 10^3 CFU/g, the “Log10 Group Geometric mean (lung burden)” value is 3.44 CFU/g and the “Log10 reduction from vehicle control” value is listed as 0.73 CFU/g.
